Experimental findings from patent publication US20130005760A1, “HETEROCYCLIC COMPOUND HAVING AZOLE GROUP” (Toyama Chemical Co., Ltd., priority 2010, published 2013) are described below.

One data set concerns HIV-1 (JRCSF). Nature of the data set: Anti-HIV activity (Test Example 1-1): MaRBLE cells infected with HIV-1 (JRCSF), compound added 2 h after seeding, luciferase readout after 7 days. The class given is cell-based. The conditions noted are these: Human immunodeficiency virus 1, 168 h, 7 days culture, firefly luciferase, virus growth rate, 4 parameter Logistic Model (XLfit 4). As to the method: (§1) This example was carried out by reference to Journal of Clinical Microbiology, 2007, Vol. 45, pages 477 to 487.
(§2) An anti-HIV activity was evaluated using MaRBLE cells obtained by transfection of HPB-M(a) derived from human T-lymphocytes with a luciferase gene of which expressions were regulated by HIV-1 LTR and a CCR5 gene etc.
The MaRBLE cells were suspended in RPMI1640 containing 10% FCS (fetal calf serum) and penicillin/streptomycin. After infected with HIV-1 (JRCSF), the cells were seeded on a 96-well plate (1×10^5 cells/well). As a control group, the same number of uninfected cells were seeded.
After incubating the plate under the condition of 37° C. and 5% CO2 for 2 hours, a fresh culture medium or a culture medium containing an appropriately diluted test compound was added to each well.
After further culturing at 37° C. under 5% CO2 for 7 days, an intracellular luciferase activity was measured using Dual-Glo Luciferase assay system (Promega).
(§3) The virus growth rate was calculated by the following equation.
(§4) Virus growth rate (%)=(A/B)×100
(§5) A=(Firefly luciferase activity in the well with the compound)−(Firefly luciferase activity of uninfected cells)
(§6) B=(Firefly luciferase activity in the well without the compound)−(Firefly luciferase activity of uninfected cells)
The IC50 of the compound was calculated by applying virus growth rates of various concentrations to 4 parameter Logistic Model of curve-fitting software XLfit 4.
In the case of `Cc1noc(C)c1-c1ccc2c(=O)cc(C)n(-c3cc(N)c(F)cc3F)c2c1` [Example 2, 1-(5-amino-2,4-difluorophenyl)-7-(3,5-dimethylisoxazol-4-yl)-2-methyl-1,4-dihydro-4-oxoquinoline], the IC50 (commonly the concentration that inhibits the measured activity by half) is 1.4 nM. The same measure, in the same setting: the value for `Cc1noc(C)c1-c1ccc2c(=O)cc(C)n(Cc3ccccc3N)c2c1` [Example 5-2, 1-(2-aminobenzyl)-7-(3,5-dimethylisoxazol-4-yl)-2-methyl-1,4-dihydro-4-oxoquinoline.½ pinacol adduct] was 0.27 nM.

With `Cc1noc(C)c1-c1ccc2c(=O)cc(CO)n(Cc3ccccc3N)c2c1` [Example 7, 1-(2-aminobenzyl)-7-(3,5-dimethylisoxazol-4-yl)-2-hydroxymethyl-1,4-dihydro-4-oxoquinoline], it took 0.2 nM to reach half-maximal inhibition (IC50). `Cc1noc(C)c1-c1ccc2c(=O)cc(N)n(-c3ccc(F)cc3F)c2c1` [Example 10, 2-amino-1-(2,4-difluorophenyl)-7-(3,5-dimethylisoxazol-4-yl)-1,4-dihydro-4-oxoquinoline] displayed an IC50 of 2.8 nM.

With `Cc1noc(C)c1-c1ccc2c(=O)cc(C)n(Cc3cccc(F)c3N)c2c1` [Example 11, 1-(2-amino-3-fluorobenzyl)-7-(3,5-dimethylisoxazol-4-yl)-2-methyl-1,4-dihydro-4-oxoquinoline], the IC50 amounted to 0.62 nM. As for `CCc1cc(=O)c2ccc(-c3c(C)noc3C)cc2n1-c1cc(N)c(F)cc1F` [Example 16, 1-(5-amino-2,4-difluorophenyl)-7-(3,5-dimethylisoxazol-4-yl)-2-ethyl-1,4-dihydro-4-oxoquinoline], the IC50 was found to be 7.2 nM. This IC50 lies about 12-fold higher than the previous one.

As to `CCc1cc(=O)c2ccc(-c3c(C)noc3C)cc2n1Cc1cccc(F)c1N` [Example 17, 1-(2-amino-3-fluorobenzyl)-7-(3,5-dimethylisoxazol-4-yl)-2-ethyl-1,4-dihydro-4-oxoquinoline], half-maximal inhibition (IC50) required 0.26 nM.

In turn, `Cc1noc(C)c1-c1ccc2c(=O)cc(C)n(Cc3cccnc3N)c2c1` [Example 18, 1-((2-aminopyridin-3-yl)methyl)-7-(3,5-dimethylisoxazol-4-yl)-2-methyl-1,4-dihydro-4-oxoquinoline] gave an IC50 of 3.5 nM. `Cc1noc(C)c1-c1ccc2c(=O)cc(CO)n(-c3cc(N)c(F)cc3F)c2c1` [Example 19, 1-(5-amino-2,4-difluorophenyl)-7-(3,5-dimethylisoxazol-4-yl)-2-(hydroxymethyl)-1,4-dihydro-4-oxoquinoline] showed a concentration for half-maximal inhibition (IC50) of 1.7 nM. Compared with the last compound, the IC50 is about 2.1-fold lower. The compound `Cc1noc(C)c1-c1ccc2c(=O)cc(N)n(-c3cc(N)c(F)cc3F)c2c1` [Example 20, 2-amino-1-(5-amino-2,4-difluorophenyl)-7-(3,5-dimethylisoxazol-4-yl)-1,4-dihydro-4-oxoquinoline] displayed an IC50 of 2.6 nM.

In the case of `Cc1noc(C)c1-c1ccc2c(=O)cc(CO)n(-c3ccc(F)cc3F)c2c1` [Example 22, 1-(2,4-difluorophenyl)-7-(3,5-dimethylisoxazol-4-yl)-2-hydroxymethyl-1,4-dihydro-4-oxoquinoline], the IC50 was found to be 0.6 nM.

`Cc1noc(C)c1-c1ccc2c(=O)cc(CO)n(-c3cc(N)c(F)cc3F)c2n1` [Example 24, 1-(5-amino-2,4-difluorophenyl)-7-(3,5-dimethylisoxazol-4-yl)-2-hydroxymethyl-1,4-dihydro-4-oxo-1,8-naphthyridine] yielded an IC50 of 0.54 nM. The IC50 values of the last two compounds are within 1.5-fold of each other. The compound `Cc1noc(C)c1-c1ccc2c(=O)cc(C)n(-c3ccc(F)cc3F)c2n1` [Example 25, 1-(2,4-difluorophenyl)-7-(3,5-dimethylisoxazol-4-yl)-2-methyl-1,4-dihydro-4-oxo-1,8-naphthyridine] returned an IC50 of 0.64 nM. The same measure, in the same setting: the value for `Cc1noc(C)c1-c1ccc2c(=O)cc(CO)n(-c3ccc(F)cc3F)c2n1` [Example 26, 1-(2,4-difluorophenyl)-7-(3,5-dimethylisoxazol-4-yl)-2-hydroxymethyl-1,4-dihydro-4-oxo-1,8-naphthyridine] was 0.23 nM. For `Cc1noc(C)c1-c1ccc2c(=O)cc(CN)n(-c3ccc(F)cc3F)c2n1` [Example 27, 2-(aminomethyl)-1-(2,4-difluorophenyl)-7-(3,5-dimethylisoxazol-4-yl)-1,4-dihydro-4-oxo-1,8-naphthyridine], the concentration for half-maximal inhibition (IC50) is 0.3 nM. Still for that read-out and setting: the value for `Cc1noc(C)c1-c1ccc2c(=O)cc(N)n(-c3ccc(F)cc3F)c2n1` [Example 28, 2-amino-1-(2,4-difluorophenyl)-7-(3,5-dimethylisoxazol-4-yl)-1,4-dihydro-4-oxo-1,8-naphthyridine] was 0.3 nM; that for `Cc1noc(C)c1-c1ccc2c(=O)cc(C)n(Cc3ccccc3N)c2n1` [Example 29, 1-(2-aminobenzyl)-7-(3,5-dimethylisoxazol-4-yl)-2-methyl-1,4-dihydro-4-oxo-1,8-naphthyridine] was 1.2 nM.

As for `Cc1noc(C)c1-c1ccc2c(=O)cc(C)n(-c3cc(N)c(S(C)(=O)=O)cc3F)c2c1` [Example 31, 1-(5-amino-2-fluoro-4-(methylsulfonyl)phenyl)-7-(3,5-dimethylisoxazol-4-yl)-2-methyl-1,4-dihydro-4-oxoquinoline], 1.8 nM corresponded to half-maximal inhibition (IC50). `Cc1noc(C)c1-c1ccc2c(=O)cc(C)n(-c3cc(N)c(Cl)cc3F)c2n1` [Example 34, 1-(5-amino-4-chloro-2-fluorophenyl)-7-(3,5-dimethylisoxazol-4-yl)-2-methyl-1,4-dihydro-4-oxo-1,8-naphthyridine] had an IC50 of 0.48 nM. This IC50 is about 3.8-fold lower than that of the compound before.

Another data set concerns HIV-1 (JRCSF). Put plainly: Anti-HIV activity (Test Example 1-2): infected MaRBLE cells seeded on plate containing drug solution, luciferase readout after 7 days. The class given is cell-based. The conditions noted are these: Human immunodeficiency virus 1, 168 h, MaRBLE cells infected with HIV-1 (JRCSF), 7 days culture, firefly luciferase, FORECAST linear regression (Excel). As to the method:
as §1, §2
A plate containing a drug solution was made by dispensing a fresh culture medium or an appropriately diluted test compound to a 96-well plate.
MaRBLE cells were suspended in RPMI1640 containing 10% FCS (fetal calf serum) and penicillin/streptomycin. After infected with HIV-1 (JRCSF), the cells were seeded on the above-described plate containing a drug solution ([…] cells/well). As a control group, the same number of uninfected cells were seeded.
After culturing at 37° C. under 5% CO2 for 7 days, an intracellular luciferase activity was measured using Dual-Glo Luciferase assay system (Promega).
as §3, §4, §5, §6
The IC50 of the compound was calculated by plotting the concentration with the logarithm and by plotting the virus growth rate with a real number, using the FORECAST function (linear regression technique) of Microsoft Office Excel 2003.
On to `Cc1noc(C)c1-c1cc2c(cc1F)c(=O)cc(C)n2Cc1ccccc1N` [Example 13, 1-(2-aminobenzyl)-7-(3,5-dimethylisoxazol-4-yl)-6-fluoro-2-methyl-1,4-dihydro-4-oxoquinoline], for which the midpoint of inhibition, the IC50, lay at 2.9 nM. As to `Cc1noc(C)c1-c1ccc2c(=O)cc(C)n(Cc3cc(F)cc(F)c3N)c2c1` [Example 14, 1-(2-amino-3,5-difluorobenzyl)-7-(3,5-dimethylisoxazol-4-yl)-2-methyl-1,4-dihydro-4-oxoquinoline], the IC50 was found to be 0.55 nM. Compared with the last compound, the IC50 is about 5.3-fold lower.

In turn, `Cc1noc(C)c1-c1ccc2c(=O)cc(C)n(-c3cc(N)c(S(C)(=O)=O)cc3F)c2n1` [Example 33, 1-(5-amino-2-fluoro-4-(methylsulfonyl)phenyl)-7-(3,5-dimethylisoxazol-4-yl)-2-methyl-1,4-dihydro-4-oxo-1,8-naphthyridine] had an IC50 of 0.87 nM. Take `Cc1noc(C)c1-c1ccc2c(=O)cc(C)n(Cc3ccc(Cl)c(F)c3N)c2c1` [Example 35, 1-(2-amino-4-chloro-3-fluorobenzyl)-7-(3,5-dimethylisoxazol-4-yl)-2-methyl-1,4-dihydro-4-oxoquinoline]: the half-maximal inhibitory concentration (IC50) is 2.6 nM. This IC50 is about 3-fold higher than that of the compound before.

System in the next data set: not listed separately
Nature of the data set: Pharmacokinetic study in mice (oral administration). It counts as in vivo. The conditions noted are these: mouse, serum, 25 mg/kg, male ICR mice, suspension in 0.5% methylcellulose 2.5 mg/mL at 10 mL/kg, 12 hours after administration, HPLC, read-out: serum concentration of the test compound. As to the method:
The compounds of Examples 2, 4, 5, 12 and 16 were used as test compounds.
A test compound suspended in 0.5% methylcellulose (2.5 mg/mL) was orally administered at 10 mL/kg to male ICR mice (6 week-old, three animals in a group). At 12 hours after the administration, the blood of the mice was collected, and the concentrations of the test compound in the serum were measured by HPLC.
For `Cc1noc(C)c1-c1ccc2c(=O)cc(C)n(-c3cc(N)c(F)cc3F)c2c1` [Example 2, 1-(5-amino-2,4-difluorophenyl)-7-(3,5-dimethylisoxazol-4-yl)-2-methyl-1,4-dihydro-4-oxoquinoline], the concentration at 12 h is at least 0.5 µg/mL. Regarding `Cc1noc(C)c1-c1ccc2c(=O)cc(C)n(Cc3ccccc3N)c2c1` [Example 5, 1-(2-aminobenzyl)-7-(3,5-dimethylisoxazol-4-yl)-2-methyl-1,4-dihydro-4-oxoquinoline], the concentration at 12 h is at least 0.5 µg/mL. Take `CCc1cc(=O)c2ccc(-c3c(C)noc3C)cc2n1-c1cc(N)c(F)cc1F` [Example 16, 1-(5-amino-2,4-difluorophenyl)-7-(3,5-dimethylisoxazol-4-yl)-2-ethyl-1,4-dihydro-4-oxoquinoline]: the concentration at 12 h is at least 0.5 µg/mL.

System in a further data set: not listed separately
Nature of the data set: Single-dose oral toxicity study in mice. The conditions noted are these: male ICR mice, suspension in 0.5% methylcellulose, conditions observed on the next day. The class given is in vivo. As to the method:
(§7) The compounds of Examples 2, 4 and 12 were used as test compounds.
10 mL/kg of a test compound suspended in 0.5% methylcellulose was orally administered to male ICR mice (6 week-old, one animal in a group).
On the next day after the administration, the conditions of the mice were observed.
Turning to `Cc1noc(C)c1-c1ccc2c(=O)cc(C)n(-c3cc(N)c(F)cc3F)c2c1` [Example 2, 1-(5-amino-2,4-difluorophenyl)-7-(3,5-dimethylisoxazol-4-yl)-2-methyl-1,4-dihydro-4-oxoquinoline], the “dose at which the compound showed good safety (single oral dose)” value was determined as 2000 mg/kg.

The subject of another data set is bone marrow polychromatic erythrocytes. Put plainly: In vivo micronucleus study in mice. The conditions noted are these: male ICR mice, oral twice at 24 hour interval, bone marrow 24 hours after final administration, highest dose group with all animals alive. As to the method:
as §7
A test compound suspended in 0.5% methylcellulose was orally administered to male ICR mice (8 week-old, three animals in a group) twice at a 24 hour interval. To a control group, 0.5% methylcellulose was orally administered in a similar manner.
At 24 hours after the final administration, the mice in the highest dose group in which all the animals were alive were killed by exsanguination under ether anesthesia, and one thigh bone was collected from each animal. After cutting the collected thigh bone at the proximal end, bone marrow cells were washed out with fetal calf serum to a centrifuge tube using a disposable syringe, and after centrifugation (1000 rpm, 5 minutes, HITACHI 05PR-22), a part of the supernatant was discarded to obtain a suspension of bone marrow cells. This suspension was smeared on a slide glass, and then dried followed by methanol fixation to prepare a sample.
The sample was observed by acridine orange staining.
The sample of which frequency of MNPCE exceeds 0.5% was judged positive.
Frequency of MNPCE (%)=(MNPCE number/Observed PCE number)×100
Regarding `Cc1noc(C)c1-c1ccc2c(=O)cc(C)n(-c3cc(N)c(F)cc3F)c2c1` [Example 2, 1-(5-amino-2,4-difluorophenyl)-7-(3,5-dimethylisoxazol-4-yl)-2-methyl-1,4-dihydro-4-oxoquinoline], the “micronucleus test result (frequency of MNPCE exceeding 0.5% judged positive)” value was “negative”.
